Where two headings read alike, the source gives them in different places.
Test system: HIVIIIB
Test: HIV-1 replication in MT2 cell line with 30% human serum (RT activity in supernatant)
Format: cell-based
Conditions: MT2 cells, day 5 after infection, average if tested more than once, read-out: MT2 (HIVIIIB) with human serum IC50 range
Experimental: HIV-1 Replication in MT2 cell line with and without 30% human serum: The cells are infected at a Multiciplicity of Infection (MOI) of 0.5 for 3 h and then washed twice with complete media to remove residual virus. Cells are then resuspended at 0.5×10^6/ml in complete medium (RPMI, 10% FBS, 1% sodium pyruvate), and seeded into 96-well plates (6.25×10^4/well). The cells are cultured in the presence or absence of various concentrations of test compounds in serial dilutions for 3 days at 37° C. The test compounds are serially diluted in complete medium supplemented or not with 30% human serum. After 3 days, 100 μL of cultured medium with cells are replaced with 120 μL of freshly diluted test compounds in complete medium containing or not 30% Human serum. The level of HIV-1 replication is determined at days 5 after infection by the presence of viral RT activity in harvested supernatant fluid. The IC50 values for the virus replication are determined by using GRAPHPAD PRISM software.
The IC50 of the compounds tested in accordance with the HIV replication activity assay MT2 (HIVIIIB) with or without human serum are represented in Table 6.

[1] = Human immunodeficiency virus 1, 120 h

Compound: C=C(C)[C@@H]1CC[C@]2(NC(=O)Nc3nccs3)CC[C@]3(C)[C@H](CC[C@@H]4[C@@]5(C)CC[C@H](OC(=O)CC(C)(C)C(=O)O)C(C)(C)[C@@H]5CC[C@]43C)[C@@H]12 [Cpd 11-19, 3β-O-(3′,3′-Dimethylsuccinyl)-17β-(N′-thiazol-2-yl-ureido)-28-norlup-20(29)-ene]
- IC50 [1]: < 199 nM

Compound: C=C(C)[C@@H]1CC[C@]2(NC(=O)N3CCCC3)CC[C@]3(C)[C@H](CC[C@@H]4[C@@]5(C)CC[C@H](OC(=O)CC(C)(C)C(=O)O)C(C)(C)[C@@H]5CC[C@]43C)[C@@H]12 [Cpd 11-29, 3β-O-(3′,3′-Dimethylsuccinyl)-17β-[(pyrrolidine-1-carbonyl)-amino]-28-norlup-20(29)-ene]
- IC50 [1]: < 199 nM

Compound: C=C(C)[C@@H]1CC[C@]2(NC(=O)c3ccncc3)CC[C@]3(C)[C@H](CC[C@@H]4[C@@]5(C)CC[C@H](OC(=O)[C@H]6CCC[C@@H](C(=O)O)C6)C(C)(C)[C@@H]5CC[C@]43C)[C@@H]12 [Cpd 13-15, 3β-O-(cis-Cyclohexane-3′-carboxylic acid-1′-carboxyl)-17β-(pyridin-4-ylcarbonyl)-amino-28-norlup-20(29)-ene]
- IC50 [1]: > 1000 nM

Compound: C=C(C)[C@@H]1CC[C@]2(NC(=O)N(C)C)CC[C@]3(C)[C@H](CC[C@@H]4[C@@]5(C)CC[C@H](OC(=O)CC(C)(C)C(=O)O)C(C)(C)[C@@H]5CC[C@]43C)[C@@H]12 [Cpd 11-13, 3β-O-(3′,3′-Dimethylsuccinyl)-17β-(N′,N′-dimethyl-ureido)-28-norlup-20(29)-ene]
- IC50 [1]: < 199 nM

Compound: C=C(C)[C@@H]1CC[C@]2(N(C)C)CC[C@]3(C)[C@H](CC[C@@H]4[C@@]5(C)CC[C@H](OC(=O)CC(C)(C)C(=O)O)C(C)(C)[C@@H]5CC[C@]43C)[C@@H]12 [Cpd 10-3, 3β-O-(3′,3′-Dimethylsuccinyl)-17β-dimethylamino-28-norlup-20(29)-ene]
- IC50 [1]: < 199 nM

Compound: C=C(C)[C@@H]1CC[C@]2(N)CC[C@]3(C)[C@H](CC[C@@H]4[C@@]5(C)CC[C@H](OC(=O)[C@H]6CCC[C@@H](C(=O)O)C6)C(C)(C)[C@@H]5CC[C@]43C)[C@@H]12 [Cpd 9-3, 3β-O-(cis-Cyclohexane-3′-carboxylic acid-1′-carboxyl)-17β-amino-28-norlup-20(29)-ene]
- IC50 [1]: < 199 nM

Compound: C=C(C)[C@@H]1CC[C@]2(NC(=O)Nc3nnc(C)o3)CC[C@]3(C)[C@H](CC[C@@H]4[C@@]5(C)CC[C@H](OC(=O)CC(C)(C)C(=O)O)C(C)(C)[C@@H]5CC[C@]43C)[C@@H]12 [Cpd 11-15, 3β-O-(3′,3′-Dimethylsuccinyl)-17β-[3-(5-methyl-[1,3,4]oxadiazol-2-yl)-ureido]-28-norlup-20(29)-ene]
- IC50 [1]: < 199 nM

Compound: C=C(C)[C@@H]1CC[C@]2(NC(=O)NC(C)(C)c3ccccc3)CC[C@]3(C)[C@H](CC[C@@H]4[C@@]5(C)CC[C@H](OC(=O)CC(C)(C)C(=O)O)C(C)(C)[C@@H]5CC[C@]43C)[C@@H]12 [Cpd 11-28, 3β-O-(3′,3′-Dimethylsuccinyl)-17β-[N′-(1-methyl-1-phenylethyl)-ureido]-28-norlup-20(29)-ene]
- IC50 [1]: < 199 nM

Compound: C=C(C)[C@@H]1CC[C@]2(NC(=O)NCC(C)C)CC[C@]3(C)[C@H](CC[C@@H]4[C@@]5(C)CC[C@H](OC(=O)CC(C)(C)C(=O)O)C(C)(C)[C@@H]5CC[C@]43C)[C@@H]12 [Cpd 11-24, 3β-O-(3′,3′-Dimethylsuccinyl)-17β-(N′-isobutylureido)-28-norlup-20(29)-ene]
- IC50 [1]: < 199 nM

Compound: 3β-O-(2′,2′-Dimethylsuccinyl)-17β-tert-butyloxycarbonylamino-28-norlup-20(29)-ene [Cpd 8-2]
- IC50: > 1000 nM

Compound: C=C(C)[C@@H]1CC[C@]2(NC(=O)NC3CCC(F)(F)CC3)CC[C@]3(C)[C@H](CC[C@@H]4[C@@]5(C)CC[C@H](OC(=O)CC(C)(C)C(=O)O)C(C)(C)[C@@H]5CC[C@]43C)[C@@H]12 [Cpd 11-25, 3β-O-(3′,3′-Dimethylsuccinyl)-17β-(N′-4,4-difluorocyclohexyl-ureido)-28-norlup-20(29)-ene]
- IC50 [1]: < 199 nM

Compound: C=C(C)C1CCC2(NCC3CC3)CCC3(C)C(CCC4C5(C)CCC(OC(=O)CC(C)(C)C(=O)O)C(C)(C)C5CCC43C)C12 (stereo not drawn) [Cpd 10-2, 17β-(Cyclopropylmethyl-amino)-3β-O-(3′,3′-dimethylsuccinyl)-28-norlup-20(29)-ene]
- IC50: < 199 nM

Compound: C=C(C)[C@@H]1CC[C@]2(NC(=O)NCC3CCCCC3)CC[C@]3(C)[C@H](CC[C@@H]4[C@@]5(C)CC[C@H](OC(=O)CC(C)(C)C(=O)O)C(C)(C)[C@@H]5CC[C@]43C)[C@@H]12 [Cpd 11-20, 3β-O-(3′,3′-Dimethylsuccinyl)-17β-(N′-cyclohexylmethyl-ureido)-28-norlup-20(29)-ene]
- IC50 [1]: < 199 nM

Compound: C=C(C)[C@@H]1CC[C@]2(NC(=O)NCC3CCN(C)CC3)CC[C@]3(C)[C@H](CC[C@@H]4[C@@]5(C)CC[C@H](OC(=O)CC(C)(C)C(=O)O)C(C)(C)[C@@H]5CC[C@]43C)[C@@H]12 [Cpd 11-14, 3β-O-(3′,3′-Dimethylsuccinyl)-17β-[N′-(1-methyl-piperidin-4-ylmethyl)-ureido]-28-norlup-20(29)-ene]
- IC50 [1]: < 199 nM

Compound: C=C(C)[C@@H]1CC[C@]2(NC(=O)N[C@@H](C)c3ccccc3)CC[C@]3(C)[C@H](CC[C@@H]4[C@@]5(C)CC[C@H](OC(=O)CC(C)(C)C(=O)O)C(C)(C)[C@@H]5CC[C@]43C)[C@@H]12 [Cpd 11-23, 3β-O-(3′,3′-Dimethylsuccinyl)-17β-(N′-(S)-1-phenyl-ethyl-ureido)-28-norlup-20(29)-ene]
- IC50 [1]: < 199 nM

Compound: C=C(C)[C@@H]1CC[C@]2(NC(=O)NCC3CCOCC3)CC[C@]3(C)[C@H](CC[C@@H]4[C@@]5(C)CC[C@H](OC(=O)CC(C)(C)C(=O)O)C(C)(C)[C@@H]5CC[C@]43C)[C@@H]12 [Cpd 11-21, 3β-O-(3′,3′-Dimethylsuccinyl)-17β-(N′-tetrahydropyran-4-ylmethyl-ureido)-28-norlup-20(29)-ene]
- IC50 [1]: < 199 nM

Compound: C=C(C)[C@@H]1CC[C@]2(NC(=O)N3CCCCC3)CC[C@]3(C)[C@H](CC[C@@H]4[C@@]5(C)CC[C@H](OC(=O)CC(C)(C)C(=O)O)C(C)(C)[C@@H]5CC[C@]43C)[C@@H]12 [Cpd 11-11, 3β-O-(3′,3′-Dimethylsuccinyl)-17β-[(piperidine-1-carbonyl)-amino]-28-norlup-20(29)-ene]
- IC50 [1]: < 199 nM

Compound: C=C(C)[C@@H]1CC[C@]2(NC(=O)NCc3ccc(F)cc3)CC[C@]3(C)[C@H](CC[C@@H]4[C@@]5(C)CC[C@H](OC(=O)CC(C)(C)C(=O)O)C(C)(C)[C@@H]5CC[C@]43C)[C@@H]12 [Cpd 11-18, 3β-O-(3′,3′-Dimethylsuccinyl)-17β-(N′-4-fluorophenylmethyl-ureido)-28-norlup-20(29)-ene]
- IC50 [1]: < 199 nM

Compound: C=C(C)[C@@H]1CC[C@]2(NC(=O)OC(C)(C)C)CC[C@]3(C)[C@H](CC[C@@H]4[C@@]5(C)CC[C@H](OC(=O)[C@H]6CC[C@@](C)(C(=O)O)C6(C)C)C(C)(C)[C@@H]5CC[C@]43C)[C@@H]12 [Cpd 8-3, 3β-O-[(1′S,3′R)-2′,2′,3′-Trimethyl-cyclopentane-3′-carboxylic acid-1′-carboxyl]-17β-tert-butyloxycarbonylamino-28-norlup-20(29)-ene]
- IC50 [1]: > 1000 nM
